Values of other authors as cited in patent US20090233914A1, “Composition for treatment of nail infections” (Ondine International, Ltd., priority 2008, published 2009).

Test system: onychomycosis
Settings: for side effects: human, in vivo, po

SMILES	side effects	effectiveness of treatment of onychomycosis (oral medicine)	nail clearing in patients for one year (oral, once a day for 90 days)
OC(Cn1cncn1)(Cn1cncn1)c1ccc(F)cc1F [Fluconazole]	severe side effects	–	–
COC1=CC(=O)C[C@@H](C)[C@]12Oc1c(Cl)c(OC)cc(OC)c1C2=O [Griseofulvin]	undesired side effects	largely ineffectual	–
CN(C/C=C/C#CC(C)(C)C)Cc1cccc2ccccc12 [Lamisil, terbinafine]	–	–	70-80 % of patients
CCC(C)n1ncn(-c2ccc(N3CCN(c4ccc(OCC5COC(Cn6cncn6)(c6ccc(Cl)cc6Cl)O5)cc4)CC3)cc2)c1=O (centres unmarked) [itraconazole]	somewhat severe	–	–
